Results from ChEMBL document CHEMBL1139227, “Discovery of a series of 6,7-dimethoxy-4-pyrrolidylquinazoline PDE10A inhibitors” (J Med Chem, 2007).
Active and inactive are the calls of the source. The calls are words filed in the database; no cut-off is given here.

Assays:
[1] = target: cGMP-inhibited 3',5'-cyclic phosphodiesterase 3B (Homo sapiens, UniProt Q13370); test: Inhibition of human recombinant PDE3B transfected in Sf9 cells by SPA
[2] = target: cGMP-inhibited 3',5'-cyclic phosphodiesterase 3A (Homo sapiens, UniProt Q14432); test: Inhibition of human recombinant PDE3A transfected in Sf9 cells by SPA
[3] = Inhibition of rat recombinant PDE10A transfected in Sf9 cells by SPA
[4] = system: Mus musculus; test: Increase of phosphorylated CREB level in CD1 mice striatal tissue at 32 mg/kg, sc after 90 mins; type: functional, organism-based; parameters: dose 32 mg/kg; conditions: Striatum
[5] = system: Mus musculus; test: Increase of cGMP level in CD1 mouse striatal tissue at 32 mg/kg, sc; type: functional, organism-based; parameters: dose 32 mg/kg; conditions: Striatum
[6] = system: Mus musculus; test: Increase of phosphorylated CREB level in CD1 mice striatal tissue at 32 mg/kg, sc after 30 mins; type: functional, organism-based; parameters: dose 32 mg/kg; conditions: Striatum
[7] = system: Mus musculus; test: Increase of cGMP level in CD1 mouse striatal tissue at 10 mg/kg, sc; type: functional, organism-based; parameters: dose 10 mg/kg; conditions: Striatum

Chain of cGMP-inhibited 3',5'-cyclic phosphodiesterase 3B (Q13370 whole entry): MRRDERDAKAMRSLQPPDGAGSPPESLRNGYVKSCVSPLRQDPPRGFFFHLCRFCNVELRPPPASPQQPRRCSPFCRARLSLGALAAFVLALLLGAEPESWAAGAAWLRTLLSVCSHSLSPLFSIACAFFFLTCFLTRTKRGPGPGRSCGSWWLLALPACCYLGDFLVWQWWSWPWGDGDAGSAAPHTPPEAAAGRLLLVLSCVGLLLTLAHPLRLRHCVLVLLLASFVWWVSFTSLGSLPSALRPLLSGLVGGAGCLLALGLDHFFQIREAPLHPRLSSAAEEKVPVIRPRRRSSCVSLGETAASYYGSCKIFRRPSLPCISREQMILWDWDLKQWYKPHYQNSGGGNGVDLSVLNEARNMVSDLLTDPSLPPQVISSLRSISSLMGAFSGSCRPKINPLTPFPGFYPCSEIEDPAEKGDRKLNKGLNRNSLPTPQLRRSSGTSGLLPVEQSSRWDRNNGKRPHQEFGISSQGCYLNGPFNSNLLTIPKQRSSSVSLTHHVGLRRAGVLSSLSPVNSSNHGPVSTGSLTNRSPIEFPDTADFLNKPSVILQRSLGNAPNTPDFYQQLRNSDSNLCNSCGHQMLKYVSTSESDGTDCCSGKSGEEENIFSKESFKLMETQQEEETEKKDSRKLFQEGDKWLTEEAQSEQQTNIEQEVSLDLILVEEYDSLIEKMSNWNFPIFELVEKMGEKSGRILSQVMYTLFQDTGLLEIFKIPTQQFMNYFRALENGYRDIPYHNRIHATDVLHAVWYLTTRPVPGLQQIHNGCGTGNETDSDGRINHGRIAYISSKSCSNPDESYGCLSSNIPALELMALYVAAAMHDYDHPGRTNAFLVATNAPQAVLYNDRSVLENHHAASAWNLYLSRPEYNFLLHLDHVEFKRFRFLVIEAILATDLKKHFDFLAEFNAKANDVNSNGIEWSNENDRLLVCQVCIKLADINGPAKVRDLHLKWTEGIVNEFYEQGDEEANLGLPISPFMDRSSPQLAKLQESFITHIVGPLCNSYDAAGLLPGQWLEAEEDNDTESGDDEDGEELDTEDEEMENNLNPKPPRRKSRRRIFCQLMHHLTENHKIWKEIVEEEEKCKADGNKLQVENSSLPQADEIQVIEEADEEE
Chain of cGMP-inhibited 3',5'-cyclic phosphodiesterase 3A (Q14432 whole entry): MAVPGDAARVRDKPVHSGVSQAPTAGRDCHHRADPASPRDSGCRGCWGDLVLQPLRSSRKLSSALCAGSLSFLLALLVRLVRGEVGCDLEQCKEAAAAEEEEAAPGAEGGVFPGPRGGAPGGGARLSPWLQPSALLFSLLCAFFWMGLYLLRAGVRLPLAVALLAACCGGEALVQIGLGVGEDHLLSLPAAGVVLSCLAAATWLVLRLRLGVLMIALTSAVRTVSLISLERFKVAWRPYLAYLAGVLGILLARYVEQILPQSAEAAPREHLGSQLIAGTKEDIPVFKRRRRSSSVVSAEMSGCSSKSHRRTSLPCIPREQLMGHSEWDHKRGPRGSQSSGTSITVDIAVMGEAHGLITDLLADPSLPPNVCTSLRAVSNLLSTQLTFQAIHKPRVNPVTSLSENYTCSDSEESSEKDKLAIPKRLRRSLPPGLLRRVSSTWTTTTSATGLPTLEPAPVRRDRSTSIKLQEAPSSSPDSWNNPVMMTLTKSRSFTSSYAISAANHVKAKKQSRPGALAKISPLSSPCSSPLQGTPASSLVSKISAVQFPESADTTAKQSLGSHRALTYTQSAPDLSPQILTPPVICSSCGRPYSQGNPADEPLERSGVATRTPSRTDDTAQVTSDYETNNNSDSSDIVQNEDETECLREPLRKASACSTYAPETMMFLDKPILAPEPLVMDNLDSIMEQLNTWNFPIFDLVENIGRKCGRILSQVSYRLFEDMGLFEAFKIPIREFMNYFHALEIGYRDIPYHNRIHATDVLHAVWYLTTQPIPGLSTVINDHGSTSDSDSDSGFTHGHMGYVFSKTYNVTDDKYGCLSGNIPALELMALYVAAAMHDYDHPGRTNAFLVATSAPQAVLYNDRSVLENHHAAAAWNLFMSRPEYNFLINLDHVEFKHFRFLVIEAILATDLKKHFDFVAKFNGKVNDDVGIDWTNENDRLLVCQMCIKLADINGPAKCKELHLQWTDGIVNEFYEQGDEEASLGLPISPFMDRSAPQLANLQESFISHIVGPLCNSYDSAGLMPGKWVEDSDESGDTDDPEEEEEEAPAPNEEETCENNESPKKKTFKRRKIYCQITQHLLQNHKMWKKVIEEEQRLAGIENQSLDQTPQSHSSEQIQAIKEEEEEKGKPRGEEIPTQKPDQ

Row | Ki [1] [nM] | Ki [2] [nM] | IC50 [3] [nM] | Structure (SMILES) | Ki [3] [nM] | Activity [4] | Activity [5] | Activity [6] | Activity [7]
1 | 280 | 199 |  | COc1ccc2cc(O[C@@H]3CCN(c4ncnc5cc(OC)c(OC)cc45)C3)ccc2c1 | 18 |  |  |  | 
2 | 332 | 162 |  | COc1cc2ncnc(N3CC[C@@H](Oc4ncc(Cl)cn4)C3)c2cc1OC | 44 |  |  |  | 
3 | < 100 | < 100 |  | COc1cc2ncnc(N3CC[C@@H](Oc4ccccc4C#N)C3)c2cc1OC | 130 |  |  |  | 
4 | 223 | 152 |  | COc1cc2ncnc(N3CC[C@@H](Oc4ccc5nc(C)ccc5c4)C3)c2cc1OC | 18 |  |  |  | 
5 | > 100 | < 100 |  | COc1cc2ncnc(N3CC[C@@H](Oc4ccccc4C(F)(F)F)C3)c2cc1OC | 811 |  |  |  | 
6 | 273 | 211 | 6 | COc1cc2ncnc(N3CC[C@@H](Oc4cnc5ccccc5n4)C3)c2cc1OC |  | Active | Active | Active | Active
7 | 305 | 273 |  | COc1ccc2ccc(O[C@@H]3CCN(c4ncnc5cc(OC)c(OC)cc45)C3)cc2c1 | 17 |  |  |  | 
8 | 1890 | 720 |  | COc1cc2ncnc(N3CC[C@@H](Oc4ccc(C(C)(C)C)cc4)C3)c2cc1OC | 100 |  |  |  | 
9 | 88 | 61 |  | CCOc1cccc(O[C@@H]2CCN(c3ncnc4cc(OC)c(OC)cc34)C2)c1 | 94 |  |  |  | 
10 | 328 | 161 |  | CCOc1ccc(O[C@@H]2CCN(c3ncnc4cc(OC)c(OC)cc34)C2)cc1 | 54 |  |  |  | 
11 | 196 | 151 |  | COc1cc2ncnc(N3CC[C@@H](Oc4cc5ccccc5cn4)C3)c2cc1OC | 19 |  |  |  | 
12 | 471 | 214 |  | COc1cc2ncnc(N3CC[C@@H](Oc4ccc(C#N)cc4)C3)c2cc1OC |  |  |  |  | 
13 | < 100 | < 100 |  | COc1cc2ncnc(N3CC[C@@H](Oc4ccccc4Cl)C3)c2cc1OC | 198 |  |  |  | 
14 | 56 | 48 |  | COc1cc2ncnc(N3CC[C@@H](Oc4cccc5ccccc45)C3)c2cc1OC | 210 |  |  |  | 
15 | 474 | 370 |  | COc1cc2ncnc(N3CC[C@@H](Oc4cccc(C(C)C)c4)C3)c2cc1OC | 171 |  |  |  | 
16 | 685 | 226 |  | COc1cc2ncnc(N3CC[C@@H](Oc4ccncc4)C3)c2cc1OC | 112 |  |  |  | 
17 | > 100 | < 100 |  | COc1cc2ncnc(N3CC[C@@H](Oc4ccccc4OC)C3)c2cc1OC | 240 |  |  |  | 

Second part, the compound before the results:

Row | Structure (SMILES) | Ki [1] [nM] | Ki [2] [nM] | IC50 [3] [nM] | Ki [3] [nM] | Activity [4] | Activity [5] | Activity [6] | Activity [7]
18 | COc1ccc(O[C@@H]2CCN(c3ncnc4cc(OC)c(OC)cc34)C2)cc1OC | 260 | 121 |  | 67 |  |  |  | 
19 | COc1cc2ncnc(N3CC[C@@H](Oc4ccc5ccccc5c4)C3)c2cc1OC | 463 | 283 | 14 |  |  |  |  | 
20 | COc1cc2ncnc(N3CCc4ccc(S(=O)(=O)N5CCN(C)CC5)cc4C3)c2cc1OC |  |  |  | 25 |  |  |  | 
21 | COc1cc2ncnc(N3CC[C@@H](Oc4ccccc4C)C3)c2cc1OC | < 100 | < 100 |  | 326 |  |  |  | 
22 | COc1cc2ncnc(N3CC[C@@H](Oc4ccc5cccnc5c4)C3)c2cc1OC | 240 | 209 |  | 12 |  |  |  | 
23 | COc1cc2ncnc(N3CC[C@@H](Oc4ccc(OC(F)(F)F)cc4)C3)c2cc1OC | 1820 | 739 |  | 185 |  |  |  | 
24 | COc1cc2ncnc(N3CC[C@@H](Oc4ccccn4)C3)c2cc1OC | 207 | 77 |  | 123 |  |  |  | 
25 | COc1cc2ncnc(N3CC[C@@H](Oc4ccc5c(c4)CCC5)C3)c2cc1OC | 237 | 141 |  | 68 |  |  |  | 
26 | COc1ccc(Cc2nccc3cc(OC)c(OC)cc23)cc1OC [PAPAVERINE] |  |  |  | 17 |  |  |  | 
27 | COc1cc2ncnc(N3CC[C@H](Oc4ccccc4OC)C3)c2cc1OC | > 100 | > 100 |  | 641 |  |  |  | 
28 | COc1cc2ncnc(N3CC[C@@H](Oc4cccc(-c5ccccc5)c4)C3)c2cc1OC | 280 | 271 |  | 136 |  |  |  | 
29 | COc1cc2ncnc(N3CC[C@@H](Oc4ccc5ncccc5c4)C3)c2cc1OC | 201 | 104 |  | 12 |  |  |  | 
30 | COc1cc2ncnc(N3CC[C@@H](Oc4cccnc4)C3)c2cc1OC | 748 | 302 |  | 128 |  |  |  | 
